Earlier results, collected in US20220401389A1, “TRANSMUCOSAL THERAPEUTIC SYSTEM CONTAINING AGOMELATINE” (LTS LOHMANN Therapie-Systeme AG, priority 2019, published 2022).

[1] = patients with moderate hepatic impairment compared to healthy subjects

SMILES: COc1ccc2cccc(CCNC(C)=O)c2c1 [agomelatine, N-(2-(7-Methoxy-1-naphthyl)ethyl)acetamide]
- oral absorption (oral): > 80%
- overall bioavailability (oral): less than 5%
- increase of AUC [1]: up to 140 fold
- increase of cmax [1]: up to 140 fold
